≈ marks a conversion by molar mass, not a printed value. Calls of active or inactive are those of the source. The calls are words filed in the database; no cut-off is given here.
How the values were obtained:
[1] = Cytotoxicity against human COLO201 cells; type: cell-based; conditions: COLO 201
Plasmodium falciparum [2] = experiment: Antiplasmodial activity against Plasmodium falciparum 3D7; type: functional, organism-based
Plasmodium falciparum [3] = experiment: Antiplasmodial activity against Plasmodium falciparum 3D7 at 1 ug/mL; type: functional, organism-based

Row | IC50 (Plasmodium falciparum [2]) [µg/mL] | Compound | IC50 [1] [µg/mL] | Activity (Plasmodium falciparum [3])
1 | 0.39 (≈ 0.969 µM) | CC(=O)O[C@H]1[C@H](OC(C)=O)[C@H]2C(C)(C)CCC[C@]2(C)[C@H]2Cc3occc3[C@H](C)[C@H]12 | > 100 | 
2 |  | CC(=O)O[C@H]1C[C@H]2[C@@H](C)C3=CC(=O)O[C@@H]3C[C@@H]2[C@@]2(C)CCCC(C)(C)[C@H]12 [12-DEOXY-SUCUTINIRANE A] | > 100 | inactive
3 |  | CC(=O)O[C@H]1C[C@H]2[C@@H](C)c3ccoc3C[C@@H]2[C@@]2(C)CCCC(C)(C)[C@H]12 | 86.6 (≈ 251 µM) | inactive
4 |  | CC(=O)O[C@H]1C[C@H]2[C@@H](C)C3=CC(=O)O[C@]3(O)C[C@@H]2[C@@]2(C)CCCC(C)(C)[C@H]12 [SUCUTINIRANE A] | 37.3 (≈ 99.1 µM) | inactive
5 |  | CC(=O)O[C@H]1C[C@@H]2[C@H]([C@H](O)[C@]3(C=COC3=O)[C@@H]2C)[C@@]2(C)CCCC(C)(C)[C@H]12 | > 100 | inactive
6 |  | CC(=O)O[C@H]1C[C@@H]([C@@H](C)C2=CC(=O)OC2)[C@H](C=O)[C@@]2(C)CCCC(C)(C)[C@H]12 | > 100 | inactive

Source: ChEMBL document CHEMBL1157444, “Sucutiniranes A and B, new cassane-type diterpenes from Bowdichia nitida” (Bioorg Med Chem Lett, 2008)
